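48-hour exposure; five concentrations; linearly interpolated endpoints. TGI marks complete inhibition of growth.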
Assays:
Assay in all cases: NCI-60 cell line screen, 48 h
[1] = tested on: MOLT-4 leukemia
[2] = tested on: UACC-257 melanoma
[3] = tested on: IGROV1 ovarian
[4] = tested on: SK-MEL-28 melanoma
[5] = tested on: HCT-116 colon
[6] = tested on: EKVX NSCLC
[7] = tested on: KM12 colon
[8] = tested on: M14 melanoma
[9] = tested on: SR leukemia
[10] = tested on: COLO 205 colon
[11] = tested on: MALME-3M melanoma
[12] = tested on: A498 renal
[13] = tested on: RPMI-8226 leukemia
[14] = tested on: NCI-H226 lung
[15] = tested on: SK-MEL-5 melanoma
[16] = tested on: HOP-92 NSCLC
[17] = tested on: OVCAR-8 ovarian
[18] = tested on: SK-OV-3 ovarian
[19] = tested on: CCRF-CEM leukemia
[20] = tested on: PC-3 prostate
[21] = tested on: OVCAR-4 ovarian
[22] = tested on: MCF7 breast
[23] = tested on: MDA-MB-231 breast
[24] = tested on: OVCAR-3 ovarian
[25] = tested on: SF-268 CNS
[26] = tested on: HT29 colon
[27] = tested on: U251 CNS
[28] = tested on: SNB-75 CNS
[29] = tested on: SF-295 CNS
[30] = tested on: ACHN renal
[31] = tested on: DU-145 prostate
[32] = tested on: OVCAR-5 ovarian
[33] = tested on: HOP-62 NSCLC
[34] = tested on: MDA-N
[35] = tested on: SK-MEL-2 melanoma
[36] = tested on: MDA-MB-435
[37] = tested on: SF-539 CNS
[38] = tested on: HCC-2998 colon
[39] = tested on: SN12C renal
[40] = tested on: 786-0 renal
[41] = tested on: BT-549 breast
[42] = tested on: HS 578T breast
[43] = tested on: CAKI-1 renal
[44] = tested on: NCI-H460 lung
[45] = tested on: NCI-H522 lung
[46] = tested on: LOX IMVI melanoma
[47] = tested on: K-562 leukemia
[48] = tested on: SNB-19 CNS
[49] = tested on: RXF 393 renal
[50] = tested on: NCI-H23 lung
[51] = tested on: HL-60(TB) leukemia
[52] = tested on: TK-10 renal
[53] = tested on: SW-620 colon
[54] = tested on: HCT-15 colon
[55] = tested on: UACC-62 melanoma
[56] = tested on: UO-31 renal
[57] = tested on: T-47D breast
[58] = tested on: A549 NSCLC
[59] = tested on: NCI/ADR-RES ovarian

Compound: CC1CCC2(NC1)OC1CC3C4CC=C5CC(OC6OC(CO)C(OC7OC(C)C(O)C(O)C7O)C(O)C6OC6OC(C)C(O)C(O)C6O)CCC5(C)C4CCC3(C)C1C2C (configuration not stated)
- TGI [1]: 26.7 µM
- TGI [2]: 6.67 µM
- TGI [3]: 15.5 µM
- TGI [4]: 4.41 µM
- TGI [5]: 4.91 µM
- TGI [6]: 6.4 µM
- TGI [7]: 9.17 µM
- TGI [8]: 6.39 µM
- TGI [9]: 27.8 µM
- TGI [10]: 35.4 µM
- TGI [11]: 9.23 µM
- TGI [12]: 11.8 µM
- TGI [13]: 32.5 µM
- TGI [14]: 7.97 µM
- TGI [15]: 33.9 µM
- TGI [16]: 21.1 µM
- TGI [17]: 8.31 µM
- TGI [18]: 19.5 µM
- TGI [19]: > 55.7 µM
- TGI [20]: 4.28 µM
- TGI [21]: 7.27 µM
- TGI [22]: 4.88 µM
- TGI [23]: 8.93 µM
- TGI [24]: 4.09 µM
- TGI [25]: 4.05 µM
- TGI [26]: 15.6 µM
- TGI [27]: 9.37 µM
- TGI [28]: 5.87 µM
- TGI [29]: 3.94 µM
- TGI [30]: 14.6 µM
- TGI [31]: 8.61 µM
- TGI [32]: 16.1 µM
- TGI [33]: > 100 µM
- TGI [34]: 4.99 µM
- TGI [35]: 9.07 µM
- TGI [36]: 5 µM
- TGI [37]: 8.75 µM
- TGI [38]: 4.72 µM
- TGI [39]: 4.83 µM
- TGI [40]: 3.72 µM
- TGI [41]: 30.3 µM
- TGI [42]: 15.6 µM
- TGI [43]: 8.66 µM
- TGI [44]: 9.16 µM
- TGI [45]: 3.43 µM
- TGI [46]: 19.9 µM
- TGI [47]: 28.7 µM
- TGI [48]: 28.3 µM
- TGI [49]: 26.5 µM
- TGI [50]: 27.1 µM
- TGI [51]: > 36 µM
- TGI [52]: 15.1 µM
- TGI [53]: 22.3 µM
- TGI [54]: 16.9 µM
- TGI [55]: 7.71 µM
- TGI [56]: 21.1 µM
- TGI [57]: 29 µM
- TGI [58]: 9.59 µM

Compound: C=C(C)OCOCCOC
- TGI [1]: > 100 µM
- TGI [2]: > 100 µM
- TGI [3]: > 100 µM
- TGI [4]: > 100 µM
- TGI [59]: > 100 µM
- TGI [5]: > 100 µM
- TGI [6]: > 100 µM
- TGI [7]: > 100 µM
- TGI [8]: > 100 µM
- TGI [9]: > 100 µM
- TGI [10]: > 100 µM
- TGI [11]: > 100 µM
- TGI [12]: > 100 µM
- TGI [13]: > 100 µM
- TGI [14]: > 100 µM
- TGI [15]: > 100 µM
- TGI [17]: > 100 µM
- TGI [18]: > 100 µM
- TGI [19]: > 100 µM
- TGI [20]: > 100 µM
- TGI [22]: > 100 µM
- TGI [23]: > 100 µM
- TGI [24]: > 100 µM
- TGI [25]: > 100 µM
- TGI [26]: > 100 µM
- TGI [27]: > 100 µM
- TGI [28]: > 100 µM
- TGI [29]: > 100 µM
- TGI [30]: > 100 µM
- TGI [31]: > 100 µM
- TGI [32]: > 100 µM
- TGI [33]: > 100 µM
- TGI [34]: > 100 µM
- TGI [35]: > 100 µM
- TGI [36]: > 100 µM
- TGI [37]: > 100 µM
- TGI [38]: > 100 µM
- TGI [39]: > 100 µM
- TGI [40]: > 100 µM
- TGI [41]: > 100 µM
- TGI [42]: > 100 µM
- TGI [43]: > 100 µM
- TGI [44]: > 100 µM
- TGI [45]: > 100 µM
- TGI [46]: > 100 µM
- TGI [47]: > 100 µM
- TGI [48]: > 100 µM
- TGI [50]: > 100 µM
- TGI [51]: > 100 µM
- TGI [52]: > 100 µM
- TGI [53]: > 100 µM
- TGI [54]: > 100 µM
- TGI [55]: > 100 µM
- TGI [56]: > 100 µM
- TGI [57]: > 100 µM
- TGI [58]: > 100 µM

Compound: CC(C)c1cccc(C(C)C)c1NC(=O)/C(CC(=O)CC(c1ccccc1)c1c(O)c2ccccc2oc1=O)=N/O (configuration not stated)
- TGI [1]: > 100 µM
- TGI [2]: > 100 µM
- TGI [3]: > 100 µM
- TGI [4]: > 100 µM
- TGI [59]: > 100 µM
- TGI [5]: > 100 µM
- TGI [6]: > 100 µM
- TGI [7]: > 100 µM
- TGI [8]: > 100 µM
- TGI [10]: > 100 µM
- TGI [11]: > 100 µM
- TGI [12]: > 100 µM
- TGI [13]: > 100 µM
- TGI [14]: > 100 µM
- TGI [15]: > 100 µM
- TGI [16]: > 100 µM
- TGI [17]: > 100 µM
- TGI [18]: > 100 µM
- TGI [19]: > 100 µM
- TGI [20]: > 100 µM
- TGI [21]: > 100 µM
- TGI [22]: > 100 µM
- TGI [23]: > 100 µM
- TGI [24]: > 100 µM
- TGI [25]: > 100 µM
- TGI [26]: > 100 µM
- TGI [27]: > 100 µM
- TGI [28]: > 100 µM
- TGI [29]: > 100 µM
- TGI [30]: > 100 µM
- TGI [31]: > 100 µM
- TGI [32]: > 100 µM
- TGI [33]: > 100 µM
- TGI [34]: > 100 µM
- TGI [35]: > 100 µM
- TGI [36]: > 100 µM
- TGI [37]: > 100 µM
- TGI [38]: > 100 µM
- TGI [39]: > 100 µM
- TGI [40]: > 100 µM
- TGI [41]: > 100 µM
- TGI [42]: > 100 µM
- TGI [43]: > 100 µM
- TGI [44]: > 100 µM
- TGI [45]: > 100 µM
- TGI [46]: > 100 µM
- TGI [47]: > 100 µM
- TGI [48]: > 100 µM
- TGI [49]: > 100 µM
- TGI [50]: > 100 µM
- TGI [51]: > 100 µM
- TGI [52]: > 100 µM
- TGI [53]: > 100 µM
- TGI [54]: > 100 µM
- TGI [55]: > 100 µM
- TGI [56]: > 100 µM
- TGI [57]: > 100 µM
- TGI [58]: > 100 µM

Compound: COc1ccc(OC2OC(CO)C(OCc3ccccc3)C(OCc3ccccc3)C2OCc2ccccc2)cc1 (configuration not stated)
- TGI [1]: 72.9 µM
- TGI [2]: > 100 µM
- TGI [3]: > 100 µM
- TGI [4]: > 100 µM
- TGI [59]: > 100 µM
- TGI [5]: > 100 µM
- TGI [6]: > 100 µM
- TGI [7]: > 100 µM
- TGI [8]: > 100 µM
- TGI [9]: > 100 µM
- TGI [10]: > 100 µM
- TGI [11]: > 100 µM
- TGI [12]: > 100 µM
- TGI [13]: > 100 µM
- TGI [14]: > 100 µM
- TGI [15]: > 100 µM
- TGI [17]: > 100 µM
- TGI [18]: > 100 µM
- TGI [19]: > 100 µM
- TGI [20]: > 100 µM
- TGI [22]: > 100 µM
- TGI [23]: > 100 µM
- TGI [24]: > 100 µM
- TGI [25]: > 100 µM
- TGI [26]: > 100 µM
- TGI [27]: > 100 µM
- TGI [28]: > 100 µM
- TGI [29]: > 100 µM
- TGI [30]: > 100 µM
- TGI [31]: > 100 µM
- TGI [32]: > 100 µM
- TGI [33]: > 100 µM
- TGI [34]: > 100 µM
- TGI [35]: > 100 µM
- TGI [36]: > 100 µM
- TGI [37]: > 100 µM
- TGI [38]: > 100 µM
- TGI [39]: > 100 µM
- TGI [40]: > 100 µM
- TGI [41]: > 100 µM
- TGI [42]: > 100 µM
- TGI [43]: > 100 µM
- TGI [44]: > 100 µM
- TGI [45]: > 100 µM
- TGI [46]: > 100 µM
- TGI [47]: > 100 µM
- TGI [48]: > 100 µM
- TGI [50]: > 100 µM
- TGI [51]: > 100 µM
- TGI [52]: > 100 µM
- TGI [53]: > 100 µM
- TGI [55]: > 100 µM
- TGI [56]: > 100 µM
- TGI [57]: > 100 µM
- TGI [58]: > 100 µM

— PubChem BioAssay (NCI)
